In patent US20240057587A1, “ORGANIC AMMONIUM SALT AND HYDROGEN-BONDING MATERIAL TREATMENT AGENT USING SAME” (MIYOSHI OIL & FAT CO.,LTD., priority 2019, published 2024):
Like-named read-outs stand apart in the source and are kept apart here.

Experiments:
[1] = for Redispersibility Titanium oxide: dispersion liquid dried at 50° C. under reduced pressure for three hours, 0.50 g water added, remixed, visual
[2] = Metal oxide dispersibility test (zirconium oxide); assay type: physicochemical; details: 0.25 g compound, 0.50 g water, 0.10 g zirconium oxide (IV); for Zirconium oxide dispersibility: visual
[3] = Carbon nanotube dispersibility test; assay type: physicochemical; details: 0.25 g compound, 0.75 g water, 0.025 g carbon nanotubes; for Carbon nanotube dispersibility: visual
[4] = 0.25 g compound, 0.50 g water, 0.10 g zinc oxide; for Zinc oxide dispersibility: visual
[5] = for Redispersibility Dye: Vali Fast Black 3830 dispersion liquid dried at 50° C. under reduced pressure for three hours, 0.7 g water added, remixed, visual
[6] = for Redispersibility Zirconium oxide: dispersion liquid dried at 50° C. under reduced pressure for three hours, 0.50 g water added, remixed, visual
[7] = Organic dye dispersibility test; assay type: physicochemical; details: 0.2 g compound, 0.7 g water; for Dye dispersibility: 0.1 g Vali Fast Black 3830, ultrasonic dispersion, after 24 hours, visual
[8] = 0.25 g compound, 0.50 g water, 0.10 g barium titanate; for Barium titanate dispersibility: visual
[9] = Metal oxide dispersibility test (titanium oxide); assay type: physicochemical; details: 0.25 g compound, 0.50 g water, 0.10 g titanium oxide (IV); for Titanium oxide dispersibility: visual
urease [10] = target: T1, urease (Canavalia ensiformis, UniProt P07374); assay type: biochemical, sword bean; details: urease in 50 wt % aqueous solution of compound; 40° C., 80% RH; after 30 days; Stabilizer:Enzyme = 1:1
T1 sequence (P07374 whole entry, looked up): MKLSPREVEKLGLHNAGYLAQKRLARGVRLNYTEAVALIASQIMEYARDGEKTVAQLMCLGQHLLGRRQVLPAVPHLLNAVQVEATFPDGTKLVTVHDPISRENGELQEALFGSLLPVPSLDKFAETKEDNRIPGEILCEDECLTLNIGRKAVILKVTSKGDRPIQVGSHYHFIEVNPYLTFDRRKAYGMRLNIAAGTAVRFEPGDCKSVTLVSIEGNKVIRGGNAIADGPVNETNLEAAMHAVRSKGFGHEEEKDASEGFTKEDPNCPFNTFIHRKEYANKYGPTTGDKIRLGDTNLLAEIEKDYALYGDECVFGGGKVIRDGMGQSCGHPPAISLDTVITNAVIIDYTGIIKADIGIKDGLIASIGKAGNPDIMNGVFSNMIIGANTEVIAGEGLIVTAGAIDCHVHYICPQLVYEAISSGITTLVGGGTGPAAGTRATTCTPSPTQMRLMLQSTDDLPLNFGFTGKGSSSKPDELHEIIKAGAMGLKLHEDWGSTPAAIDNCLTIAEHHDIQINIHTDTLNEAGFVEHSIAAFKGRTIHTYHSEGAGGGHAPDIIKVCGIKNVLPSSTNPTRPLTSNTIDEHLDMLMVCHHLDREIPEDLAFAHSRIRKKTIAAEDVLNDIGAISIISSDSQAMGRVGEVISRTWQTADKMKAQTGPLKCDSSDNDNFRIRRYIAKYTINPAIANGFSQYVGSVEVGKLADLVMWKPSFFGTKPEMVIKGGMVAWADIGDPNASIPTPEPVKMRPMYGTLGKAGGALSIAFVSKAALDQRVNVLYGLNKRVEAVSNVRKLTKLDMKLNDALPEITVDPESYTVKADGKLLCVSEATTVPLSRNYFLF

DNA = DNA long-term stability, 50% aqueous solution; details: 40° C., 80% RH
cytochrome C [11] = target: T2, cytochrome C (Equus caballus, UniProt P00004); assay: Protein long-term stability (IR and UV spectrum), solid sample; design: species or system Horse; details: cytochrome C, solid sample, 40° C., 80% RH, after 30 days
T2 construct: a reagent produced by NACALAI TESQUE, INC; (Horse Heart, molecular weight 12384) was used; purchased NACALAI TESQUE, INC; host or cells: horse heart (tissue origin)
T2 sequence (P00004 whole entry): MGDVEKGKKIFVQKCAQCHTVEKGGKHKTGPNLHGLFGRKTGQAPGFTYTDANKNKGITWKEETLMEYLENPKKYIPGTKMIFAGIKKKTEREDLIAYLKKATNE

cytochrome C [12] = target: T2, cytochrome C; assay: Protein long-term stability, 50% aqueous solution; design: species or system Horse; details: cytochrome C in 50 wt % aqueous solution of compound; 40° C.; after 30 days; 1:1
Description: At first, changes in amide absorption by IR spectrum were precisely observed, and there were confirmed the higher-order structures of protein (turn, α-helix, random coil, β-sheet). The amide I region (1,600 to 1,700 cm^−1) and the amide II region (1,500 to 1,600 cm^−1) were measured by ATR method using a Fourier transform infrared spectrophotometer (FT/IR-6100 by JASCO Corporation), and peaks were then detected based on a difference(s) between a cytochrome C-free organic ammonium salt sample (blank) and a cytochrome C-containing organic ammonium salt sample (sample).
Further, the activity state of cytochrome C (Fe^2+: reduced form, Fe^3+: oxidized form) was confirmed via absorptions in UV spectrum. The measurement was conducted using an ultraviolet-visible spectrophotometer and a quartz cell having an optical path width of 2 mm, immediately after diluting the cytochrome C-containing organic ammonium salt sample to 1% with a 50 mM phosphate buffer of pH 7.4 (prepared using 50 mM potassium dihydrogen phosphate and 50 mM dipotassium hydrogen phosphate).

urease [13] = target: T1, urease; assay type: biochemical, sword bean; details: solid sample, 40° C., 80% RH, after 30 days
urease [14] = target: T1, urease; assay type: biochemical, sword bean; details: urease, 40° C., 80% RH, after 30 days, 1:1; for Enzyme activity retention rate (%) (after 30 days) Stabilizer:Enzyme = 1:1, Mixed by mortar: solid sample mixed by mortar; for Enzyme activity retention rate (%) (after 30 days) Stabilizer:Enzyme = 1:1, Solvent distilled away from dissolution solution: solid sample

| SMILES | Enzyme activity retention rate(%) (after 30 days) Stabilizer: Enzyme = 1:1 (urease [10]) | DNA long-term stability (after 30 days) Stabilizer: DNA = 1:1 (DNA) | Protein long-term stability (after 30 days) Stabilizer: Protein = 0.1:1 (cytochrome C [11]) | Protein long-term stability (after 30 days) Stabilizer: Protein = 1:1 (cytochrome C [11]) | Protein long-term stability (after 30 days) Stabilizer: Protein = 10:1 (cytochrome C [11]) | Zirconium oxide dispersibility [2] | Carbon nanotube dispersibility [3] | Dye dispersibility [7] | Titanium oxide dispersibility [9] | Protein long-term stability (after 30 days) Stabilize:Protein = 1:1 (cytochrome C [12]) | Enzyme activity retention rate(%) (after 30 days) Stabilizer: Enzyme = 0.1:1 (urease [13]) | Enzyme activity retention rate(%) (after 30 days) Stabilizer: Enzyme = 1:1 (urease [13]) | Enzyme activity retention rate(%) (after 30 days) Stabilizer: Enzyme = 10:1 (urease [13]) | Enzyme activity retention rate (%) (after 30 days) Stabilizer:Enzyme = 1:1, Mixed by mortar (urease [14]) | Enzyme activity retention rate (%) (after 30 days) Stabilizer:Enzyme = 1:1, Solvent distilled away from dissolution solution (urease [14]) | Redispersibility Titanium oxide [1] | Zinc oxide dispersibility [4] | Redispersibility Dye [5] | Redispersibility Zirconium oxide [6] | Barium titanate dispersibility [8] | other results |
| --- | --- | --- | --- | --- | --- | --- | --- | --- | --- | --- | --- | --- | --- | --- | --- | --- | --- | --- | --- | --- | --- |
| CCCC[N+](CCCC)(CCCC)CCCC.[Br-] [Comparative example 12, tetra-n-butylammonium bromide, reference compound] |  |  |  |  |  |  |  |  |  |  |  |  |  |  |  |  |  |  |  |  | dispersed state after redispersion (visual) ([1]; dried titanium oxide dispersion, 0.50 g of water added): precipitates were observed immediately after performing mixing with the mixer; dispersed state of zirconium oxide (visual) [2]: zirconium oxide immediately precipitated, and therefore did not disperse; dispersed state of carbon nanotubes (visual) [3]: the carbon nanotubes did not disperse, but precipitated; dispersed state of zinc oxide (visual) [4]: zinc oxide did not disperse, but immediately precipitated; dispersed state after redispersion (visual) ([5]; dried Vali Fast Black 3830 dispersion, 0.7 g of water added): precipitates were observed immediately after performing mixing with the mixer; dispersed state after redispersion (visual) ([6]; dried zirconium oxide dispersion, 0.50 g of water added): precipitates were observed immediately after performing mixing with the mixer; mixed and dispersed state of organic dye after 24 hours (visual) ([7]; 0.1 g Vali Fast Black 3830, ultrasonic dispersion): the organic dye did not disperse, but precipitated; dispersed state of barium titanate (visual) [8]: barium titanate did not disperse, but immediately precipitated; dispersed state of titanium oxide (visual) [9]: a low dispersibility was observed as titanium oxide had precipitated |
| NC(CO)CO [Working example 26] | 18 | ○ | ◯ | ◯ | ◯ | ○ | ○ | ○ | ○ | ○ | 10 | 81 | 25 | 13 | 81 |  |  |  |  |  |  |
| CCC(N)(CO)CO [Working example 27] | 11 | ○ ○ | ◯ ◯ | ◯ ◯ | ◯ ◯ | ○ ○ | ○ ○ |  | ○ ○ | ○ ○ | 8 | 74 | 20 | 10 | 74 |  |  |  |  |  |  |
| NC(CO)(CO)CO [Working example 28] | 15 | ○ ○ | ◯ | ◯ | ◯ | ○ ○ ○ ○ | ○ ○ | ○ ○ ○ ○ | ○ ○ ○ ○ | ○ ○ ○ | 15 | 65 | 35 | 12 | 65 | ○ ○ ○ ○ | ○ ○ ○ ○ | ○ ○ ○ ○ | ○ ○ ○ ○ | ○ ○ ○ ○ |  |
| CCC(N)(CO)CO [Working example 35] | 10 | ○ ○ |  |  |  |  |  |  |  |  | 9 | 16 | 22 | 0 | 16 |  |  |  |  |  |  |
| NC(CO)(CO)CO [Working example 36] | 39 |  | ◯ | ◯ | ◯ | ○ ○ ○ ○ |  | ○ ○ ○ ○ | ○ ○ ○ ○ | ○ ○ ○ | 27 | 41 | 45 | 7 | 41 | ○ ○ ○ ○ | ○ ○ ○ ○ | ○ ○ ○ ○ | ○ ○ ○ ○ | ○ ○ ○ ○ |  |
| NC(CO)(CO)CO [Working example 48] | 30 | ○ ○ | ◯ | ◯ | ◯ | ○ ○ ○ ○ | ○ ○ | ○ ○ ○ ○ | ○ ○ ○ ○ | ○ | 18 | 48 | 52 | 9 | 48 | ○ ○ ○ ○ | ○ ○ ○ ○ | ○ ○ ○ ○ | ○ ○ ○ ○ | ○ ○ ○ ○ |  |
